Reference: ChEMBL document CHEMBL1201862, “PubChem BioAssay data set” (2004)
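Cultured in 96-well plates, cells were exposed to test compound for 48 hours across five concentrations. GI50 = concentration required for 50% inhibition of growth.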 Activity calls are given as the source filed them. Rule as the data show it: active = GI50 up to about 1.1 µM and inactive = higher.

Columns and labels:
Experiment in all cases: NCI-60 cell line screen, 48 h
NCI-H460 = tested on: NCI-H460
MDA-MB-435 = tested on: MDA-MB-435
M14 = tested on: M14
RPMI-8226 = tested on: RPMI-8226
SN12C = tested on: SN12C
U-251 = tested on: U-251
SNB-19 = tested on: SNB-19
SR = tested on: SR
SK-MEL-28 = tested on: SK-MEL-28
OVCAR-8 = tested on: OVCAR-8
HOP-62 = tested on: HOP-62
NCI-H226 = tested on: NCI-H226
SW-620 = tested on: SW-620
KM12 = tested on: KM12
OVCAR-5 = tested on: OVCAR-5
A498 = tested on: A498
HT-29 = tested on: HT-29
MDA-MB-231 = tested on: MDA-MB-231
CAKI-1 = tested on: CAKI-1
COLO 205 = tested on: COLO 205
NCI/ADR-RES = tested on: NCI/ADR-RES
786-0 = tested on: 786-0
ACHN = tested on: ACHN
UACC-257 = tested on: UACC-257
DU-145 = tested on: DU-145
OVCAR-4 = tested on: OVCAR-4
SNB-75 = tested on: SNB-75
UO-31 = tested on: UO-31
HOP-92 = tested on: HOP-92
BT-549 = tested on: BT-549
LOX IMVI = tested on: LOX IMVI
SF-539 = tested on: SF-539
K562 = tested on: K562
SF-295 = tested on: SF-295
MCF7 = tested on: MCF7
HCT-15 = tested on: HCT-15
Hs-578T = tested on: Hs-578T
T47D = tested on: T47D
HL-60 = tested on: HL-60
SK-MEL-2 = tested on: SK-MEL-2
HCT-116 = tested on: HCT-116
PC-3 = tested on: PC-3
IGROV-1 = tested on: IGROV-1
NCI-H23 = tested on: NCI-H23
MDA-N = tested on: MDA-N
RXF 393 = tested on: RXF 393
SF-268 = tested on: SF-268
TK-10 = tested on: TK-10
MOLT-4 = tested on: MOLT-4
SK-MEL-5 = tested on: SK-MEL-5
Malme-3M = tested on: Malme-3M
A549 = tested on: A549
SK-OV-3 = tested on: SK-OV-3
EKVX = tested on: EKVX
OVCAR-3 = tested on: OVCAR-3
UACC-62 = tested on: UACC-62
HCC 2998 = tested on: HCC 2998

## COC(=O)C1=C(O)C(C(=O)OC)[C@]2(O)[C@H](C(=O)OC)[C@H]1C[C@@H](c1ccc(C(F)(F)F)cc1)[C@H]2C(=O)OC (some centres not stated)
NCI-H460
  GI50: 3.34 µM (inactive)
MDA-MB-435
  GI50: 3.36 µM (inactive)
M14
  GI50: 3.81 µM (inactive)
RPMI-8226
  GI50: 2.51 µM (inactive)
SN12C
  GI50: 4.47 µM (inactive)
U-251
  GI50: 2.41 µM (inactive)
SNB-19
  GI50: 3.87 µM (inactive)
SR
  GI50: 2.56 µM (inactive)
SK-MEL-28
  GI50: 4.89 µM (inactive)
OVCAR-8
  GI50: 2.85 µM (inactive)
HOP-62
  GI50: 6.87 µM (inactive)
NCI-H226
  GI50: 1.33 µM (inactive)
SW-620
  GI50: 2.76 µM (inactive)
KM12
  GI50: 5.37 µM (inactive)
OVCAR-5
  GI50: 3.63 µM (inactive)
A498
  GI50: 3.37 µM (inactive)
HT-29
  GI50: 4.68 µM (inactive)
MDA-MB-231
  GI50: 4.22 µM (inactive)
CAKI-1
  GI50: 3.34 µM (inactive)
COLO 205
  GI50: 3.18 µM (inactive)
NCI/ADR-RES
  GI50: 2.33 µM (inactive)
786-0
  GI50: 3.44 µM (inactive)
ACHN
  GI50: 3.46 µM (inactive)
UACC-257
  GI50: 4.6 µM (inactive)
DU-145
  GI50: 4.24 µM (inactive)
OVCAR-4
  GI50: 5.55 µM (inactive)
SNB-75
  GI50: 4.13 µM (inactive)
UO-31
  GI50: 2.84 µM (inactive)
HOP-92
  GI50: 5.27 µM (inactive)
BT-549
  GI50: 3.25 µM (inactive)
LOX IMVI
  GI50: 2.45 µM (inactive)
SF-539
  GI50: 1.59 µM (inactive)
K562
  GI50: 2.62 µM (inactive)
SF-295
  GI50: 4 µM (inactive)
MCF7
  GI50: 3.5 µM (inactive)
HCT-15
  GI50: 2.82 µM
Hs-578T
  GI50: 4.43 µM (inactive)
T47D
  GI50: 3.44 µM (inactive)
HL-60
  GI50: 5.48 µM (inactive)
SK-MEL-2
  GI50: 2.79 µM (inactive)
HCT-116
  GI50: 2.54 µM (inactive)
PC-3
  GI50: 3.48 µM (inactive)
IGROV-1
  GI50: 5.15 µM (inactive)
NCI-H23
  GI50: 3.58 µM (inactive)
MDA-N
  GI50: 3.27 µM (inactive)
RXF 393
  GI50: 2.17 µM (inactive)
SF-268
  GI50: 4.47 µM (inactive)
TK-10
  GI50: 4.73 µM (inactive)
MOLT-4
  GI50: 2.07 µM (inactive)
SK-MEL-5
  GI50: 2.49 µM (inactive)
Malme-3M
  GI50: 3.78 µM (inactive)
A549
  GI50: 3.74 µM (inactive)
SK-OV-3
  GI50: 6.35 µM (inactive)
EKVX
  GI50: 10.6 µM (inactive)
OVCAR-3
  GI50: 3.78 µM (inactive)
UACC-62
  GI50: 3.87 µM (inactive)
HCC 2998
  GI50: 3.47 µM (inactive)
